Where two headings read alike, the source gives them in different places.
System: Human Peripheral Blood Mononuclear Cell
Test: Suppressive action on production of mediator from human peripheral blood mononuclear cell
Format: cell-based
Conditions: LPS 10 ng/mL and INFα 1 U/mL, overnight, ELISA
Method: Peripheral blood mononuclear cells were separated from three healthy subjects by a conventional method, suspended in RPMI1640 medium supplemented with 10% inactivated fetal bovine serum, and plated on a 96 well microplate at 8×10^4 cells/well. Test compound 2 (compound 8′ of Reference Example D7), LPS (final concentration 10 ng/mL) and INFα (final concentration 1 U/mL) were added, cultured overnight, and TNF-α, IL-6 and IL-8 in the culture supernatant was quantified using a commercially available ELISA kit. Test substance was dissolved in N,N-dimethylformamide to 10 mM, diluted with the medium to 10-fold concentration of the final concentration and 1/10 thereof was added. Test compound 2 suppressed production of TNFα, IL-6 and IL-8 at an equivalent IC50. In addition, no difference in the suppressive activity was found in the peripheral blood mononuclear cells of the three subjects.

IC50 (subject A, read-out: IC50, IL-6 production): 36 nM
IC50 (subject A, read-out: IC50, IL-8 production): 83 nM
IC50 (subject A, read-out: IC50, TNF-α production): 43 nM
IC50 (subject B, read-out: IC50, IL-6 production): 51 nM
IC50 (subject B, read-out: IC50, IL-8 production): 130 nM
IC50 (subject B, read-out: IC50, TNF-α production): 39 nM
IC50 (subject C, read-out: IC50, IL-6 production): 35 nM
IC50 (subject C, read-out: IC50, IL-8 production): 81 nM
IC50 (subject C, read-out: IC50, TNF-α production): 32 nM
SMILES: CCOC(=O)C1=CCOCC1S(=O)(=O)Nc1ccc(F)cc1Cl (stereo not drawn) [test compound 2, ethyl 3-[(2-chloro-4-fluorophenyl)sulfamoyl]-3,6-dihydro-2H-pyran-4-carboxylate]

Reference: patent US20090062355A1, “Pharmaceutical Product” (Takeda Pharmaceutical Company Limited, priority 2006, published 2009)
